Test results reported in patent publication US20240083839A1, “COMPOSITIONS AND METHODS FOR TREATING NEURODEGENERATIVE DISEASES AND DISORDERS” (The Regents of the University of California, priority 2020, published 2024).
Where “and” joins values, the source holds several entries; their conditions need not be identical. Identical values can stand only once. Like-named read-outs stand apart in the source and are kept apart here.

Tests used:
[1] = test system: SirT1 levels in N2a-E4 cells; test: SirT1 levels by AlphaLISA in ApoE4-transfected N2a cells; type: cell-based, murine
Description: Prompted by the emerging importance of the associations between ApoE4 and the expression/protein levels of SirT1, high-throughput screening (HTS) of the UCLA compound library was performed using AlphaLISA to detect SirT1 levels in murine neuroblastoma cells stably transfected with ApoE4 (E4-N2a) to identify SirT1 enhancers. […] In the in vivo study, mice were treated orally at 40 mkd (20 mg/kg BID) for 56 days and underwent assessment of cognition in the Novel Object Recognition (NOR) testing paradigm. […] The performance of A03-treated E4-AD mice (FIG. 5A) improved to level of non-transgenic vehicle-treated mice.
Throughout, for PAMPA: unit not given here.

Structure (SMILES)	PAMPA (PAMPA)	SirT1 SOμM [1]	SirT1 SμM [1]	PAMPA (PAMPA; PAMPA)
CC(C)(Cc1ccc(Cl)cc1)NC(=O)C(C)(C)N [MP-29, 2-amino-N-(1-(4-chlorophenyl)-2-methylpropan-2-yl)-2-methylpropanamide]	2.1	a, a (a <250%)	a, a (a <250%)	
C[C@H](N)C(=O)NC(C)(C)Cc1cc(F)cc(F)c1 [MP-43, (S)-2-amino-N-(1-(3,5-difluorophenyl)-2-methylpropan-2-yl)propanamide]	1.59	A, A (A >20%)	A, A (A >20%)	
CC(C)(N)C(=O)NCCc1ccc(Cl)cc1 [MP-79, 2-amino-N-(4-chlorophenethyl)-2-methylpropanamide]	1.74	B (B >50%)	A (A >20%)	
C[C@H](N)C(=O)NC1Cc2ccccc2C1 [MP-56, (S)-2-amino-N-(2,3-dihydro-1H-inden-2-yl)propanamide]	1.81	C (C = 100% increase versus control)	A (A >20%)	
CC(C)(Cc1ccc(Cl)cc1)OC(=O)C1CCCCN1 (stereo not shown) [MP-19, 1-(4-chlorophenyl)-2-methylpropan-2-yl piperidine-2-carboxylate]	2.61	A, A (A >20%)	A, A (A >20%)	
C[C@@H](N)C(=O)NC(C)(C)Cc1ccc(F)c(F)c1 [MP-36, (R)-2-amino-N-(1-(3,4-difluorophenyl)-2-methylpropan-2-yl)propanamide]	1.66	a, a (a <250%)	a, a (a <250%)	
C[C@H](N)C(=O)NC(C)(C)Cc1ccc(F)c(F)c1 [MP-35, (S)-2-amino-N-(1-(3,4-difluorophenyl)-2-methylpropan-2-yl)propanamide]	1.7	A, A (A >20%)	A, A (A >20%)	
CC(C)(Cc1ccc(Cl)cc1)OC(=O)CCN [MP-17, 1-(4-chlorophenyl)-2-methylpropan-2-yl 3-aminopropanoate]	3.86	C (C = 100% increase versus control)	A (A >20%)	
C[C@@H](N)C(=O)NC(C)(C)Cc1ccc(Cl)cc1 [MP-27, (R)-2-amino-N-(1-(4-chlorophenyl)-2-methylpropan-2-yl)propanamide]	2.72	a, a (a <250%)	a, a (a <250%)	
C[C@H](N)C(=O)Nc1ccc2ccccc2c1 [MP-55, (S)-2-amino-N-(naphthalen-2-yl)propanamide]	5.06	B (B >50%)	A (A >20%)	
CC(N)C(=O)OC(C)(C)Cc1ccc(F)cc1 (stereo not shown) [MP-04, 1-(4-fluorophenyl)-2-methylpropan-2-yl 2-aminopropanoate]	2.75	B (B >50%)	A (A >20%)	
CC(N)C(=O)NC(C)(C)Cc1ccc(Cl)cc1 (stereo not shown) [MP-15, 2-amino-N-(1-(4-chlorophenyl)-2-methylpropan-2-yl)propanamide]	2.74	B (B >50%)	A (A >20%)	
O=C1NCN[C@H]1Cc1ccc(Cl)cc1 [MP-72, (S)-5-(4-chlorobenzyl)imidazolidin-4-one]	11.07(2)	A, A (A >20%)	A, A (A >20%)	
CC(C)(Cc1ccc(Br)cc1)NC(=O)[C@@H](N)CCC(=O)O [MP-61, (S)-4-amino-5-((1-(4-bromophenyl)-2-methylpropan-2-yl)amino)-5-oxopentanoic acid]	0.29	B (B >50%)	A (A >20%)	
CC(N)C(=O)OC(C)(C)CCc1ccc(Cl)cc1 (stereo not shown) [MP-12, 4-(4-chlorophenyl)-2-methylbutan-2-yl 2-aminopropanoate]	4.95	A, A (A >20%)	A, A (A >20%)	
CC(C)(Cc1ccc(Cl)cc1)OC(=O)C(N)CO (stereo not shown) [MP-16, 1-(4-chlorophenyl)-2-methylpropan-2-yl 2-amino-3-hydroxypropanoate]	2.53	A, A (A >20%)	A, A (A >20%)	
CC(N)C(=O)OC(Cc1ccc(Cl)cc1)c1ccccc1 (stereo not shown) [MP-26]	3.45	A, A (A >20%)	A, A (A >20%)	
C[C@H](N)CC(=O)OC(C)(C)Cc1ccc(Cl)cc1 [MP-18, (S)-1-(4-chlorophenyl)-2-methylpropan-2-yl 3-aminobutanoate]	4.01(2)	A (A >20%)	a (a <250%)	
C[C@H](N)C(=O)OC1(Cc2ccc(Cl)cc2)CCNC1 (single isomer, unassigned) [MP-32, 3-(4-chlorobenzyl)pyrrolidin-3-yl L-alaninate]	0.68	C (C = 100% increase versus control)	A (A >20%)	

Structure (SMILES)	PAMPA (PAMPA)	SirT1 SOμM [1]	SirT1 SμM [1]	PAMPA (PAMPA; PAMPA)
CC(N)C(=O)NC(C)(C)Cc1ccc(F)c(F)c1 (stereo not shown) [MP-22, -amino-N-(1-(3,4-difluorophenyl)-2-methylpropan-2-yl)propanamide]	1.7	C (C = 100% increase versus control)	A (A >20%)	
C[C@H](N)C(=O)NC(C)(C)Cc1ccc(Cl)cc1 [MP-28, (S)-2-amino-N-(1-(4-chlorophenyl)-2-methylpropan-2-yl)propanamide]	2.78 and 2.86	B (B >50%)	A (A >20%)	
Cc1ccc(CC(C)(C)OC(=O)C(C)N)cc1 (stereo not shown) [MP-06, 2-methyl-1-p-tolylpropan-2-yl 2-aminopropanoate]	4.22	B (B >50%)	A (A >20%)	
C[C@@H](N)C(=O)NC(C)(C)Cc1cccc(C(F)(F)F)c1 [MP-40, (R)-2-amino-N-(2-methyl-1-(3-(trifluoromethyl)phenyl)propan-2-yl)propanamide]	1.78	A, A (A >20%)	A, A (A >20%)	
CC(C)(Cc1ccc(Cl)cc1)OC(=O)C(N)Cc1ccccc1 (stereo not shown) [MP-01, 1-(4-chlorophenyl)-2-methylpropan-2-yl 2-amino-3-phenylpropanoate]	4.72	A, A (A >20%)	A, A (A >20%)	
C#CC[C@H](N)C(=O)NC(C)(C)Cc1ccc(Br)cc1 [MP-62, (S)-2-amino-N-(1-(4-bromophenyl)-2-methylpropan-2-yl)pent-4-ynamide]	1.67	B (B >50%)	A (A >20%)	
CC(N)C(=O)OC1(Cc2ccc(Cl)cc2)CCCCC1 (stereo not shown) [MP-10, 1-(4-chlorobenzyl)cyclohexyl 2-aminopropanoate]	6.58	B (B >50%)	A (A >20%)	
CC(=O)c1ccc(CC(C)(C)NC(=O)[C@H](C)N)cc1 [MP-53, (S)—N-(1-(4-acetylphenyl)-2-methylpropan-2-yl)-2-aminopropanamide]	0.49	B (B >50%)	A (A >20%)	
C[C@H](N)C(=O)OC(C)(C)Cc1ccncc1 [MP-48, 2-methyl-1-(pyridin-4-yl)propan-2-yl alaninate]	0.4	B (B >50%)	A (A >20%)	
CC(N)C(=O)OC(C)(C)Cc1cc(F)cc(F)c1 (stereo not shown) [MP-14, 1-(3,5-difluorophenyl)-2-methylpropan-2-yl 2-aminopropanoate]	2.17	A, A (A >20%)	A, A (A >20%)	
CCC(C)C(N)C(=O)OC(C)(C)Cc1ccc(Cl)cc1 (stereo not shown) [MP-11, 1-(4-chlorophenyl)-2-methylpropan-2-yl 2-amino-3-methylpentanoate]	5.28	A, A (A >20%)	A, A (A >20%)	
CC(C)(Cc1ccc(F)c(F)c1)NC(=O)C1CCCN1C(=O)OC(C)(C)C (stereo not shown) [MP-24, tert-butyl 2-(1-(3,4-difluorophenyl)-2-methylpropan-2-ylcarbamoyl)pyrrolidine-1-carboxylate]	1.27	a, a (a <250%)	a, a (a <250%)	
CC(C)(Cc1ccc(F)c(F)c1)NC(=O)C1CCCN1 (stereo not shown) [MP-25, N-(1-(3,4-difluorophenyl)-2-methylpropan-2-yl)pyrrolidine-2-carboxamide]	1.23(2)	B (B >50%)	A (A >20%)	
C[C@H](N)C(=O)OC(C)(C)Cc1ccc(Cl)cc1 [MP-41, 1-(4-chlorophenyl)-2-methylpropan-2-yl L-alaninate]		A, A (A >20%)	A, A (A >20%)	3.88
C[C@H](N)C(=O)NC(C)(Cc1ccc(F)cc1)Cc1ccc(F)cc1 [MP-51, (S)-2-amino-N-(1,3-bis(4-fluorophenyl)-2-methylpropan-2-yl)propanamide]	2.25 and 2.38	C (C = 100% increase versus control)	A (A >20%)	
C[C@@H](N)C(=O)OC1(Cc2ccc(Cl)cc2)CCNCC1 (stereo in doubt) [MP-49, 4-(4-chlorobenzyl)piperidin-4-yl alaninate]	1.02(2)	B (B >50%)	A (A >20%)	
C[C@H](N)C(=O)N[C@H]1CCCCNC1=O.Cl (racemic) [MP-103, (S)-2-amino-N—((S)-2-oxoazepan-3-yl)propanamide hydrochloride]		a, a (a <250%)	a, a (a <250%)	
C[C@H](N)C(=O)O[C@@H]1CCC[C@@H]1c1ccc(Cl)cc1.Cl (single isomer, unassigned) [MP-93]		C (C = 100% increase versus control)	A (A >20%)	
